For series [1], the target named is human S1P3 (Homo sapiens, UniProt Q99500). Nature of the series: Internalization effect experiment of S1P3 (CHO-S cells). It counts as cell-based. Particulars: for internalization activation effect on S1P3 subtype: CHO-S cells expressing human S1P3, in words; for EC50: CHO-S cells expressing human S1P3, read-out: Receptor Internalization (EC50) S1P3. As for the experimental part:
CHO—S cells bearing human S1P1 with Myc tag were harvested and then adjusted to a density of one million cells per mL by Dulbecco's modified Eagle's medium (DMEM). […] After incubation, the mixture was centrifuged at 800 RPM for 5 minutes to obtain the cells. The cells were resuspended in FACS buffer (PBS containing 1% BSA), and Myc antibody labelled with fluorescein isothiocyanate (FITC) (from Californian Miltenyi Biotec GmbH, USA) was added in and incubated for 1 hour on ice. The cells were washed, resuspended in pre-cooled FACS buffer and analysed by FACS Calibur flow cytometry.
CHO—S cells expressing human S1P3 were used to perform internalization detection test. Besides cells, experimental method was the same with the method of the internalized detection experiment of S1P1.

Series [2] addresses T1, human S1P1 (Homo sapiens, UniProt P21453).
T1 construct: expressed in transfected cells; host or cells: CHO-S cells
Nature of the series: Internalization effect experiment on S1P1 (CHO-S cells, Myc tag, flow cytometry). Particulars: for EC50: CHO-S cells expressing human S1P1, 1 hour at 37° C., read-out: Receptor Internalization (EC50) S1P1; for activity of inducing S1P1 internalization: CHO-S cells expressing human S1P1, in words. The class given is cell-based. An excerpt: It is well known that S1P1 small molecule agonists can prevent lymphocytes from entering the peripheral circulation by inducing internalization of S1P1 on cell surface. In order to determine whether the compounds provided by present invention have an activity of inducing S1P1 internalization, CHO—S cells expressing human S1P1, to replace the lymphocytes, are used as detection system of S1P1 internalization. For ease of monitoring the S1P1 on cell surface, a Myc tag is fused to N-terminal of S1P1, thus the expression of S1P1 is analyzed by flow cytometry after incubating the cells with fluorescent-labeled antibody against the Myc tag.
A 10 mM stock solution was prepared by dissolving compound 2 provided by the present invention in dimethyl sulfoxide (DMSO), and then the stock solution was diluted to different concentrations as desired with DMEM. CHO—S cells bearing human S1P1 with Myc tag were harvested and then adjusted to a density of one million cells per mL by Dulbecco's modified Eagle's medium (DMEM). Different concentrations of Compound 2 diluted in an equal volume were mixed and the cell suspension and then incubated at 37° C. for 1 hour. After incubation, the mixture was centrifuged at 800 RPM for 5 minutes to obtain the cells. The cells were resuspended in FACS buffer (PBS containing 1% BSA), and Myc antibody labelled with fluorescein isothiocyanate (FITC) (from Californian Miltenyi Biotec GmbH, USA) was added in and incubated for 1 hour on ice. The cells were washed, resuspended in pre-cooled FACS buffer and analysed by FACS Calibur flow cytometry.

Series [3] in a line: In vivo pharmacokinetic experiment, oral administration. Also on record: species or system Sprague Dawley rats. Particulars: for half-life / AUC(0-inf) / Cmax / Tmax: male, Sprague-Dawley, rat, plasma; for half-life: po, 3 mg/kg; for elimination speed after the highest concentration, compared with compounds 1 and 5: oral administration, FIGS. 1A and 1B. The method, then:
(§1) In this Example, the pharmacokinetic properties of compounds 1, 2, 3, 4 and 5 were evaluated via. i.v. and p.o. dosing to Sprague Dawley rats.
(§2) Experimental animals used in this Example and hereinafter were male SD rats of 7-9 weeks old, with body weight ranging from 186 to 231 g, which were purchased from Beijing Vital River Laboratory Animal Technology Co., Ltd. The animals were quarantined by veterinarian for 5 days after purchase, then animals had passed quarantine inspection were selected to be tested under SPE conditions, wherein the tested animals are assigned into 3 rats per group as follows.
Oral administration group: 2.74 mg of each of compounds 1-5 was respectively prepared into a solution of 0.3 mg/mL by using 9.113 mL 0.5% CMC-Na as a diluent. Each solution was vortexed 1-2 mins after mixed fully, and then was ultrasonically treated for 20-30 mins until a uniform suspension was obtained. The uniform suspension was used as medicine administrated to oral administration group, and the administration was conducted with a dose of 10 mL/kg body weight of each rat.
(§3) For both oral administration group and intravenous administration group, blood samples were collected at 0.0833 h (5 min), 0.25 h (15 min), 0.5 h, 1 h, 2 h, 4 h, 8 h, and 24 h after administration. After isoflurane anesthesia 0.3 mL whole blood was collected from orbital venous plexus of the animals at each time point. The animals would be euthanized after all samples were collected.
(§4) The collected blood samples were placed in EP tubes containing heparin sodium (about 10 μl, 1000 IU/mL), which were then placed in trash ice immediately, and centrifuged at 4,000 rpm and a low temperature (4° C.) for 5 minutes. The plasma was isolated rapidly and then stored at −20° C. until analysis.
(§5) The concentration of each compound in blood was measured by LC-MS/MS-001 (Q-trap-3200) with osalmide as internal standard material, as follows. 24 μL blank plasma was added into 6 μL plasma sample (5 times of dilution), and then a solution of acetonitrile containing 150 μL internal standard material (osalmide in 100 μg/mL) was added in. The mixture was shaken for 5 minutes, and then centrifuged at 4,000 rpm for 5 minutes. 2 μL of the obtained sample was implanted into LC-MS/MS for analysis. As for undiluted plasma sample, 30 μL of it was added into a solution of acetonitrile containing 150 μL internal standard material (osalmide in 100 μg/mL). The mixture was shaken for 5 minutes, and then centrifuged at 4,000 rpm for 5 minutes. 2 μL of the obtained sample was implanted into LC-MS/MS for analysis.
(§6) As for data analysis, WinNolin (V6.2) non-compartment model (NCA) was used for calculating main metabolic pharmacokinetic parameters including t1/2, AUC(0−t), AUCinf, V, Cl, MRT, etc., and Microsoft Office EXCEL was used for calculating mean values, standard deviations and coefficients of variation.

Series [4] in a line: In vivo pharmacokinetic experiment, intravenous administration. Also on record: species or system Sprague Dawley rats. Particulars: for mean residence time (MRT) compared with compound 1 / terminal half-life compared with compound 1: intravenous administration, rats, in words; for AUC(0-inf) / MRT inf / clearance / half-life / Vd: male, Sprague-Dawley, rat, plasma, intravenous administration (1 mg/kg), SD rats; for half-life: read-out: T½ (converted); for Vd: read-out: Vss. As for the experimental part:
as §1, §2
Intravenous administration group: 1.61 mg of each of compounds 1-5 was respectively prepared into a solution of 1 mg/mL by using 1.610 mL 10% HP-β-CD as a diluent. Each solution was vortexed 1-2 mins after mixed fully, and then was ultrasonically treated for 28-30 mins. The obtained solution was used as medicine administrated to intravenous administration group, and the administration was conducted with a dose of 1 mL/kg body weight of each rat.
as §3, §4, §5, §6

The mark [5] stands for this setting: after oral administration, rats.
Setting [6] is: after oral administration, rats, read-out: terminal half-life (converted).
Where [7] appears, read: oral administration (3 mg/kg), SD rats, read-out: T½ (converted).
Setting [8] is: oral administration (3 mg/kg), SD rats.

human S1P3, sequence (Q99500 whole entry): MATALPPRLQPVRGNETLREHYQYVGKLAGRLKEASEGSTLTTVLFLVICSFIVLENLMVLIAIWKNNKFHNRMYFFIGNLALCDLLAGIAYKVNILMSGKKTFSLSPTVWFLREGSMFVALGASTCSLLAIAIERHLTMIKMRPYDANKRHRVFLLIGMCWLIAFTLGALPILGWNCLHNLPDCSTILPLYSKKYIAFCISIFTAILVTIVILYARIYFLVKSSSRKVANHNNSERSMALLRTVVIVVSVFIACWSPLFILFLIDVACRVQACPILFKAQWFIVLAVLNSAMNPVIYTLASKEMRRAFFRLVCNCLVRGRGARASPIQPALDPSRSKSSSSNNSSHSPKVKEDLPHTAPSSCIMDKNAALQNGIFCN
T1 sequence (P21453 whole entry): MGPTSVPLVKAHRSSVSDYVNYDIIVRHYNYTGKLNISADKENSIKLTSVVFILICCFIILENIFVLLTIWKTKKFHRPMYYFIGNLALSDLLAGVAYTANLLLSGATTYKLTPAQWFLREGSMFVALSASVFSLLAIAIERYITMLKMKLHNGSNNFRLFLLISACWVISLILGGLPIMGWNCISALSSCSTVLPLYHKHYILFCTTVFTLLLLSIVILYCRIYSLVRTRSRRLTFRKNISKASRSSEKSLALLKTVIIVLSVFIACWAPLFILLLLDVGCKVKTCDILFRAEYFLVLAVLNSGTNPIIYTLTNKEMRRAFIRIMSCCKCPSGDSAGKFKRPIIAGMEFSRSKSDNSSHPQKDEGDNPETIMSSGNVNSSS

Regarding `CC(C)Cc1ccc(-c2nc(-c3ccc(CN4CC(C(=O)O)C4)c(Cl)c3)no2)cc1` [Compound 3, 1-{2-chloro-4-[5-(4-isobutylphenyl)-1,2,4-oxadiazol-3-yl]-benzyl}-3-azetidine carboxylic acid], in series [1], the “internalization activation effect on S1P3 subtype” value is “no internalization activation effect on S1P3 subtype” and the EC50 is more than 1000 nM. In addition, in series [2], the EC50 was 3.21 nM and the “activity of inducing S1P1 internalization” value is recorded as “no significant difference with that of compound 1”. Further, in series [3] (setting [5]), the “half-life shortening relative to compound 1” value was approximately 50%. Further, the half-life in series [3] (setting [6]) was less than 5.5 h. Besides, in series [3] (setting [7]), the half-life was 5.3 ± 0.51 h. Also, in series [3] (setting [8]), the AUC(0-inf) stood at 8110 ± 469 ng·h/mL, the highest level (Cmax) was 681 ± 61.1 ng/mL, the Tmax was found to be 3.33 h and the F is 96.1%. Further, the “elimination speed after the highest concentration, compared with compounds 1 and 5” value in series [3] (rats, in words) is given as “accelerated obviously”. Also, in series [4], the “mean residence time (MRT) compared with compound 1” value is on record as “reduced significantly”, the “terminal half-life compared with compound 1” value was “reduced significantly”, the area under the curve AUC(0-inf) is 2770 ± 410 ng·h/mL and the mean residence time (MRT inf) came to 5.11 ± 0.39 h. For the same compound, in series [4], the clearance was 6.1 mL/min/kg, the half-life was 5.04 ± 0.37 h and the Vd worked out at 2.65 ± 0.229 L/kg.

Turning to `CC(C)Cc1ccc(-c2nc(-c3ccc(CN4CC(C(=O)O)C4)cc3)no2)cc1` [Compound 1, 1-{4-[5-(4-isobutylphenyl)-1,2,4-oxadiazol-3-yl]-benzyl}-3-azetidine carboxylic acid, reference compound], the EC50 in series [1] is more than 1000 nM. Further, the EC50 in series [2] came out at 5.69 nM. For the same compound, the half-life in series [3] (setting [6]) is approximately 11 h. In addition, the half-life in series [3] (setting [7]) was 10.6 ± 1.07 h. In addition, in series [3] (setting [8]), the area under the curve AUC(0-inf) worked out at 6200 ± 147 ng·h/mL, the maximum concentration (Cmax) is 365 ± 51.5 ng/mL, the time of peak concentration (Tmax) came to 2 h and the F came to 82.5%. For the same compound, in series [4], the AUC(0-inf) stood at 2380 ± 329 ng·h/mL, the mean residence time MRT inf was determined as 11 ± 1.2 h, the clearance was 7.12 mL/min/kg and the half-life is 8.69 ± 0.8 h. For the same compound, the Vd in series [4] amounted to 4.65 ± 0.389 L/kg.

Take `CC(C)Cc1ccc(-c2nc(-c3ccc(CN4CC(C(=O)O)C4)c(Br)c3)no2)cc1` [Compound 4, 1-{2-bromo-4-[5-(4-isobutylphenyl)-1,2,4-oxadiazol-3-yl]-benzyl}-3-azetidine carboxylic acid]: in series [1], the “internalization activation effect on S1P3 subtype” value is given as “no internalization activation effect on S1P3 subtype” and the EC50 was more than 1000 nM. Moreover, in series [2], the EC50 is 4.2 nM and the “activity of inducing S1P1 internalization” value is “no significant difference with that of compound 1”. Moreover, in series [3] (setting [5]), the “half-life shortening relative to compound 1” value is on record as approximately 50%. Also, the half-life in series [3] (setting [6]) was less than 5.5 h. The half-life in series [3] (setting [7]) is 5.37 ± 0.15 h. In series [3] (setting [8]), the AUC(0-inf) came to 4420 ± 449 ng·h/mL, the highest level (Cmax) was 346 ± 29.6 ng/mL, the Tmax amounted to 1.15 h and the F was found to be 52.9%. Also, the “elimination speed after the highest concentration, compared with compounds 1 and 5” value in series [3] (rats, in words) is “accelerated obviously”. In series [4], the “mean residence time (MRT) compared with compound 1” value is “reduced significantly”, the “terminal half-life compared with compound 1” value is “reduced significantly”, the AUC(0-inf) came to 2770 ± 200 ng·h/mL and the MRT inf turned out to be 5.23 ± 0.36 h. Further, in series [4], the clearance was 6.03 mL/min/kg, the half-life was 5.29 ± 0.6 h and the Vd came out at 2.75 ± 0.112 L/kg.

Regarding `Cc1cc(-c2noc(-c3ccc(CC(C)C)cc3)n2)ccc1CN1CC(C(=O)O)C1` [Compound 5, 1-{2-methyl-4-[5-(4-isobutylphenyl)-1,2,4-oxadiazol-3-yl]-benzyl}-3-azetidine carboxylic acid], in series [3] (setting [7]), the half-life was 12.3 ± 2.09 h. Moreover, in series [3] (setting [8]), the total exposure AUC(0-inf) worked out at 5460 ± 401 ng·h/mL, the concentration peaked (Cmax) at 249 ± 8.74 ng/mL, the Tmax stood at 3.33 h and the F amounted to 74.0%. Further, the “half-life compared with compound 1” value in series [3] (oral and intravenous (Tables 1 and 2), rats, in words) is listed as “extended rather than shortened”. Further, in series [4], the AUC(0-inf) amounted to 2200 ± 89.5 ng·h/mL, the mean residence time MRT inf was 12.9 ± 1.24 h, the clearance was 7.57 mL/min/kg and the half-life is 10.1 ± 1.02 h. For the same compound, the Vd in series [4] was 5.87 ± 0.802 L/kg.

Source of the values: patent US10280158B2, “Immune adjustment compound, use thereof and pharmaceutical composition comprising same” (SUZHOU CONNECT BIOPHARMACEUTICALS, LTD., priority 2013, dated 2019).
